Measured values published in US20230085307A1, “PYRIDAZINONE COMPOUND AND HERBICIDE” (NISSAN CHEMICAL CORPORATION, priority 2019, published 2023).

Assays:
windgrass [1] = assay: Test Example 5: herbicidal effect by foliage application, plastic box (Table 20, symbol L); format: in vivo, windgrass (Apera spica-venti); conditions: foliage application, 320 g/ha
Procedure, shortened: (§1)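 Post-emergence foliar test in sterilized diluvial soil. Compound applied as water-diluted emulsion at a predetermined rate to 14-day-old plants; evaluation at three weeks.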

chickweed = assay: Test Example 4: herbicidal effect by soil treatment (Table 19, symbol P); format: in vivo, common chickweed (Stellaria media)
Procedure, shortened: (§2)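 Scoring uses the grading scale of an earlier test, three weeks post-application. Treatment consists of spraying a diluted emulsion formulation across the surface of sterilized diluvial soil in which seeds are buried near 1.5 cm deep; boxes are kept in a greenhouse between 25° C. and 30° C.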

Chinese sprangletop = assay: Test Example 3: herbicidal effect by foliage application, Wagner pot (Table 18, symbol D); format: in vivo, chinese sprangletop (Leptochloa chinensis); conditions: 320 g/ha
Procedure, shortened: (§3)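 Plants were sown in alluvial soil held under 0.1–0.5 cm standing water and grown 14 days in a greenhouse at 25–30 °C. An emulsifiable formulation, water-diluted to the set dose, was then sprayed onto the foliage, and effects were scored three weeks later using previously defined criteria.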

velvetleaf [2] = assay: Test Example 4: herbicidal effect by soil treatment (Table 19, symbol M); format: in vivo, velvetleaf (Abutilon theophrasti)
Procedure, shortened: as §2

false cleavers [3] = assay: Test Example 4: herbicidal effect by soil treatment (Table 19, symbol Q); format: in vivo, false cleavers (Galium spurium)
Procedure, shortened: as §2

barnyard grass [4] = assay: Test Example 3: herbicidal effect by foliage application, Wagner pot (Table 18, symbol H); format: in vivo, barnyard grass (Echinochloa crus-galli); conditions: 320 g/ha
Procedure, shortened: as §3

windgrass [5] = assay: Test Example 4: herbicidal effect by soil treatment (Table 19, symbol L); format: in vivo, windgrass (Apera spica-venti)
Procedure, shortened: as §2

velvetleaf [6] = assay: Test Example 5: herbicidal effect by foliage application, plastic box (Table 20, symbol M); format: in vivo, velvetleaf (Abutilon theophrasti); conditions: foliage application, 320 g/ha
Procedure, shortened: as §1

lambsquarters [7] = assay: Test Example 5: herbicidal effect by foliage application, plastic box (Table 20, symbol O); format: in vivo, lambsquarters (Chenopodium album); conditions: foliage application, 320 g/ha
Procedure, shortened: as §1

rice flat sedge = assay: Test Example 3: herbicidal effect by foliage application, Wagner pot (Table 18, symbol E); format: in vivo, rice flat sedge (Cyperus iria); conditions: 320 g/ha
Procedure, shortened: as §3

persian speedwell [8] = assay: Test Example 4: herbicidal effect by soil treatment (Table 19, symbol R); format: in vivo, Persian speedwell (Veronica persica)
Procedure, shortened: as §2

southern crabgrass [9] = assay: Test Example 4: herbicidal effect by soil treatment (Table 19, symbol F); format: in vivo, southern crabgrass (Digitaria ciliaris)
Procedure, shortened: as §2

barnyard grass [10] = assay: Test Example 5: herbicidal effect by foliage application, plastic box (Table 20, symbol H); format: in vivo, barnyard grass (Echinochloa crus-galli); conditions: foliage application, 320 g/ha
Procedure, shortened: as §1

green foxtail [11] = assay: Test Example 5: herbicidal effect by foliage application, plastic box (Table 20, symbol G); format: in vivo, green foxtail (Setaria viridis); conditions: foliage application, 320 g/ha
Procedure, shortened: as §1

Italian ryegrass [12] = assay: Test Example 4: herbicidal effect by soil treatment (Table 19, symbol K); format: in vivo, Italian ryegrass (Lolium multiflorum)
Procedure, shortened: as §2

wild oat [13] = assay: Test Example 4: herbicidal effect by soil treatment (Table 19, symbol I); format: in vivo, wild oat (Avena fatua)
Procedure, shortened: as §2

southern crabgrass [14] = assay: Test Example 5: herbicidal effect by foliage application, plastic box (Table 20, symbol F); format: in vivo, southern crabgrass (Digitaria ciliaris); conditions: foliage application, 320 g/ha
Procedure, shortened: as §1

barnyard grass [15] = assay: Test Example 4: herbicidal effect by soil treatment (Table 19, symbol H); format: in vivo, barnyard grass (Echinochloa crus-galli)
Procedure, shortened: as §2

persian speedwell [16] = assay: Test Example 5: herbicidal effect by foliage application, plastic box (Table 20, symbol R); format: in vivo, Persian speedwell (Veronica persica); conditions: foliage application, 320 g/ha
Procedure, shortened: as §1

Italian ryegrass [17] = assay: Test Example 5: herbicidal effect by foliage application, plastic box (Table 20, symbol K); format: in vivo, Italian ryegrass (Lolium multiflorum); conditions: foliage application, 320 g/ha
Procedure, shortened: as §1

false cleavers [18] = assay: Test Example 5: herbicidal effect by foliage application, plastic box (Table 20, symbol Q); format: in vivo, false cleavers (Galium spurium); conditions: foliage application, 320 g/ha
Procedure, shortened: as §1

redroot pigweed = assay: Test Example 4: herbicidal effect by soil treatment (Table 19, symbol N); format: in vivo, redroot pigweed (Amaranthus retroflexus)
Procedure, shortened: as §2

lambsquarters [19] = assay: Test Example 4: herbicidal effect by soil treatment (Table 19, symbol O); format: in vivo, lambsquarters (Chenopodium album)
Procedure, shortened: as §2

wild oat [20] = assay: Test Example 5: herbicidal effect by foliage application, plastic box (Table 20, symbol I); format: in vivo, wild oat (Avena fatua); conditions: foliage application, 320 g/ha
Procedure, shortened: as §1

blackgrass [21] = assay: Test Example 5: herbicidal effect by foliage application, plastic box (Table 20, symbol J); format: in vivo, blackgrass (Alopecurus myosuroides); conditions: foliage application, 320 g/ha
Procedure, shortened: as §1

blackgrass [22] = assay: Test Example 4: herbicidal effect by soil treatment (Table 19, symbol J); format: in vivo, blackgrass (Alopecurus myosuroides)
Procedure, shortened: as §2

green foxtail [23] = assay: Test Example 4: herbicidal effect by soil treatment (Table 19, symbol G); format: in vivo, green foxtail (Setaria viridis); conditions: amount of applied herbicide 320 g/ha
Procedure, shortened: as §2

[24] = amount of applied herbicide 320 g/ha

## CCCC(=O)Oc1c(OC)nn(C)c(=O)c1-c1c(-c2ccc3c(c2)OCCO3)sc2ccccc12 [1-199]
Windgrass [1]; 3 weeks after application
  effect on windgrass (L): 0 (Herbicidal rate of 5% or less (almost no effect))
chickweed; AAH 320 g/ha
  P: chickweed, herbicidal effect rating: 4 (Herbicidal rate of 70% or more and less than 90%)
Chinese sprangletop
  herbicidal effect on D (Chinese sprangletop), rating 0-5: 0 (Herbicidal rate of 5% or less (almost no effect))
Velvetleaf [2]; AAH 320 g/ha
  M: velvetleaf, herbicidal effect rating: 0 (Herbicidal rate of 5% or less (almost no effect))
False cleavers [3]; AAH 320 g/ha
  Q: false cleavers, herbicidal effect rating: 0 (Herbicidal rate of 5% or less (almost no effect))
Barnyard grass [4]
  herbicidal effect on H (barnyard grass), rating 0-5: 0 (Herbicidal rate of 5% or less (almost no effect))
Windgrass [5]; AAH 320 g/ha
  L: windgrass, herbicidal effect rating: 0 (Herbicidal rate of 5% or less (almost no effect))
Velvetleaf [6]; 3 weeks after application
  effect on velvetleaf (M): 0 (Herbicidal rate of 5% or less (almost no effect))
Lambsquarters [7]; 3 weeks after application
  effect on lambsquarters (O): 0 (Herbicidal rate of 5% or less (almost no effect))
Rice flat sedge
  herbicidal effect on E (rice flat sedge), rating 0-5: 5 (Herbicidal rate of 90% or more (almost completely withered))
Persian speedwell [8]; AAH 320 g/ha
  R: persian speedwell, herbicidal effect rating: 5 (Herbicidal rate of 90% or more (almost completely withered))
Southern crabgrass [9]; AAH 320 g/ha
  F: southern crabgrass, herbicidal effect rating: 1 (Herbicidal rate of 5% or more and less than 20%)
Barnyard grass [10]; 3 weeks after application
  effect on barnyard grass (H): 0 (Herbicidal rate of 5% or less (almost no effect))
Green foxtail [11]; 3 weeks after application
  effect on green foxtail (G): 0 (Herbicidal rate of 5% or less (almost no effect))
Italian ryegrass [12]; AAH 320 g/ha
  K: Italian ryegrass, herbicidal effect rating: 0 (Herbicidal rate of 5% or less (almost no effect))
Wild oat [13]; AAH 320 g/ha
  I: wild oat, herbicidal effect rating: 0 (Herbicidal rate of 5% or less (almost no effect))
Southern crabgrass [14]; 3 weeks after application
  effect on southern crabgrass (F): 0 (Herbicidal rate of 5% or less (almost no effect))
Barnyard grass [15]; AAH 320 g/ha
  H: barnyard grass, herbicidal effect rating: 2 (Herbicidal rate of 20% or more and less than 40%)
Persian speedwell [16]; 3 weeks after application
  effect on persian speedwell (R): 4 (Herbicidal rate of 70% or more and less than 90%)
Italian ryegrass [17]; 3 weeks after application
  effect on Italian ryegrass (K): 0 (Herbicidal rate of 5% or less (almost no effect))
False cleavers [18]; 3 weeks after application
  effect on false cleavers (Q): 0 (Herbicidal rate of 5% or less (almost no effect))
Redroot pigweed; AAH 320 g/ha
  N: redroot pigweed, herbicidal effect rating: 0 (Herbicidal rate of 5% or less (almost no effect))
Lambsquarters [19]; AAH 320 g/ha
  O: lambsquarters, herbicidal effect rating: 3 (Herbicidal rate of 40% or more and less than 70%)
Wild oat [20]; 3 weeks after application
  effect on wild oat (I): 0 (Herbicidal rate of 5% or less (almost no effect))
Blackgrass [21]; 3 weeks after application
  effect on blackgrass (J): 0 (Herbicidal rate of 5% or less (almost no effect))
Blackgrass [22]; AAH 320 g/ha
  J: blackgrass, herbicidal effect rating: 0 (Herbicidal rate of 5% or less (almost no effect))

## COc1cc2sc(-c3ccccc3OC)c(-c3c(O)c(C)nn(C)c3=O)c2cc1OC [5-059]
Green foxtail [23]
  G: green foxtail, herbicidal effect grade: 0 (Herbicidal rate of 5% or less (almost no effect))
Windgrass [1]; three weeks after application
  herbicidal effect on windgrass (L): 4 (Herbicidal rate of 70% or more and less than 90%)
chickweed; [24]
  P: chickweed, herbicidal effect grade: 0 (Herbicidal rate of 5% or less (almost no effect))
Chinese sprangletop
  herbicidal effect on Chinese sprangletop (D): 3 (Herbicidal rate of 40% or more and less than 70%)
Velvetleaf [2]; [24]
  M: velvetleaf, herbicidal effect grade: 0 (Herbicidal rate of 5% or less (almost no effect))
False cleavers [3]; [24]
  Q: false cleavers, herbicidal effect grade: 0 (Herbicidal rate of 5% or less (almost no effect))
Barnyard grass [4]
  herbicidal effect on barnyard grass (H): 5 (Herbicidal rate of 90% or more (almost completely withered))
Windgrass [5]; [24]
  L: windgrass, herbicidal effect grade: 3 (Herbicidal rate of 40% or more and less than 70%)
Velvetleaf [6]; three weeks after application
  herbicidal effect on velvetleaf (M): 3 (Herbicidal rate of 40% or more and less than 70%)
Lambsquarters [7]; three weeks after application
  herbicidal effect on lambsquarters (O): 4 (Herbicidal rate of 70% or more and less than 90%)
Rice flat sedge
  herbicidal effect on rice flat sedge (E): 4 (Herbicidal rate of 70% or more and less than 90%)
Persian speedwell [8]; [24]
  R: persian speedwell, herbicidal effect grade: 0 (Herbicidal rate of 5% or less (almost no effect))
Southern crabgrass [9]; [24]
  F: southern crabgrass, herbicidal effect grade: 0 (Herbicidal rate of 5% or less (almost no effect))
Barnyard grass [10]; three weeks after application
  herbicidal effect on barnyard grass (H): 3 (Herbicidal rate of 40% or more and less than 70%)
Green foxtail [11]; three weeks after application
  herbicidal effect on green foxtail (G): 4 (Herbicidal rate of 70% or more and less than 90%)
Italian ryegrass [12]; [24]
  K: Italian ryegrass, herbicidal effect grade: 4 (Herbicidal rate of 70% or more and less than 90%)
Wild oat [13]; [24]
  I: wild oat, herbicidal effect grade: 0 (Herbicidal rate of 5% or less (almost no effect))
Southern crabgrass [14]; three weeks after application
  herbicidal effect on southern crabgrass (F): 4 (Herbicidal rate of 70% or more and less than 90%)
Barnyard grass [15]; [24]
  H: barnyard grass, herbicidal effect grade: 0 (Herbicidal rate of 5% or less (almost no effect))
Persian speedwell [16]; three weeks after application
  herbicidal effect on persian speedwell (R): 4 (Herbicidal rate of 70% or more and less than 90%)
Italian ryegrass [17]; three weeks after application
  herbicidal effect on Italian ryegrass (K): 4 (Herbicidal rate of 70% or more and less than 90%)
False cleavers [18]; three weeks after application
  herbicidal effect on false cleavers (Q): 0 (Herbicidal rate of 5% or less (almost no effect))
Redroot pigweed; [24]
  N: redroot pigweed, herbicidal effect grade: 0 (Herbicidal rate of 5% or less (almost no effect))
Lambsquarters [19]; [24]
  O: lambsquarters, herbicidal effect grade: 0 (Herbicidal rate of 5% or less (almost no effect))
Wild oat [20]; three weeks after application
  herbicidal effect on wild oat (I): 4 (Herbicidal rate of 70% or more and less than 90%)
Blackgrass [21]; three weeks after application
  herbicidal effect on blackgrass (J): 5 (Herbicidal rate of 90% or more (almost completely withered))
Blackgrass [22]; [24]
  J: blackgrass, herbicidal effect grade: 3 (Herbicidal rate of 40% or more and less than 70%)
